# Test system: subjects with moderate-to-severe plaque psoriasis
# Experiment: IGA score, Example 1
# Format: in vivo, human
# Protocol: The Investigator's Global Assessment (IGA) documents the investigator's assessment of the participant's psoriasis at a given time point. Overall lesions are graded for induration, erythema, and scaling. The participant's psoriasis is assessed as cleared (0), minimal (1), mild (2), moderate (3), or severe (4).
# This was a randomized, double-blind, placebo-controlled, dose-ranging, parallel group, multicenter, interventional study in subjects with moderate-to-severe plaque psoriasis. A target of 240 subjects were enrolled in this study with 40 subjects planned per intervention group.
# Clinician-reported outcomes including Psoriasis Area and Severity Index (PASI), Body Surface Area (BSA), Investigator's Global Assessment (IGA), Nail Psoriasis Area and Severity Index (NAPSI), Fingernail Physician's Global Assessment (f-PGA), Static Physician's Global Assessment of Genitalia (s-PGA-G), Physician's Global Assessment of Hands and/or Feet (hf-PGA), and Scalp Specific Investigator Global Assessment (ss-IGA) were obtained at Week 0, 8, and 16. PASI and IGA were also obtained at Weeks 1, 2, 4, and 12, and at Week 20, four weeks after the administration of the tablets has stopped.
# [1] = 100 mg BID, Week 16, trough plasma conc Q2 to <Q3
# [2] = 100 mg BID, Week 16, trough plasma conc ≥Q3
# [3] = 100 mg QD, Week 16, peak plasma conc. <Q1, N=2
# [4] = 100 mg QD, Week 16, peak plasma conc. Q1 to <Q2, N=2
# [5] = 100 mg QD, Week 16, peak plasma conc. Q2 to <Q3, N=2
# [6] = 100 mg QD, Week 16, peak plasma conc. ≥Q3, N=2
# [7] = 100 mg QD, Week 16, trough plasma conc <Q1
# [8] = 100 mg QD, Week 16, trough plasma conc Q1 to <Q2
# [9] = 100 mg QD, Week 16, trough plasma conc Q2 to <Q3
# [10] = 100 mg QD, Week 16, trough plasma conc ≥Q3
# [11] = Combined doses, Week 16, peak plasma conc. <Q1, N=10
# [12] = Combined doses, Week 16, peak plasma conc. Q1 to <Q2, N=11
# [13] = Combined doses, Week 16, peak plasma conc. Q2 to <Q3, N=10
# [14] = Combined doses, Week 16, peak plasma conc. ≥Q3, N=11
# [15] = Combined doses, Week 16, trough plasma conc <Q1
# [16] = Combined doses, Week 16, trough plasma conc Q1 to <Q2
# [17] = Combined doses, Week 16, trough plasma conc Q2 to <Q3
# [18] = Combined doses, Week 16, trough plasma conc ≥Q3
# [19] = Week 16, 25 mg BID, intermediate plasma concentration quartile <Q1, N=1
# [20] = Week 16, 25 mg BID, intermediate plasma concentration quartile Q1 to <Q2, N=1
# [21] = Week 16, 25 mg BID, intermediate plasma concentration quartile Q2 to <Q3, N=1
# [22] = Week 16, 25 mg BID, intermediate plasma concentration quartile ≥Q3, N=1
# [23] = Week 16, 25 mg QD, intermediate plasma concentration quartile Q1 to <Q2, N=1
# [24] = Week 16, 25 mg QD, intermediate plasma concentration quartile Q2 to <Q3, N=1
# [25] = Week 16, 25 mg QD, intermediate plasma concentration quartile ≥Q3, N=1
# [26] = Week 16, 50 mg QD, intermediate plasma concentration quartile <Q1, N=1
# [27] = Week 16, 50 mg QD, intermediate plasma concentration quartile Q1 to <Q2, N=1
# [28] = Week 16, 50 mg QD, intermediate plasma concentration quartile Q2 to <Q3, N=1
# [29] = Week 16, 50 mg QD, intermediate plasma concentration quartile ≥Q3, N=2
# [30] = Week 16, 100 mg BID, intermediate plasma concentration quartile <Q1, N=1
# [31] = Week 16, 100 mg BID, intermediate plasma concentration quartile Q1 to <Q2, N=1
# [32] = Week 16, 100 mg BID, intermediate plasma concentration quartile Q2 to <Q3, N=1
# [33] = Week 16, 100 mg BID, intermediate plasma concentration quartile ≥Q3, N=2
# [34] = Week 16, 100 mg QD, intermediate plasma concentration quartile <Q1, N=1
# [35] = Week 16, 100 mg QD, intermediate plasma concentration quartile Q1 to <Q2, N=1
# [36] = Week 16, 100 mg QD, intermediate plasma concentration quartile Q2 to <Q3, N=1
# [37] = Week 16, 100 mg QD, intermediate plasma concentration quartile ≥Q3, N=1
# [38] = Week 16, Combined regimens, intermediate plasma concentration quartile <Q1, N=5
# [39] = Week 16, Combined regimens, intermediate plasma concentration quartile Q1 to <Q2, N=5
# [40] = Week 16, Combined regimens, intermediate plasma concentration quartile Q2 to <Q3, N=5
# [41] = Week 16, Combined regimens, intermediate plasma concentration quartile ≥Q3, N=6
smiles,measurement,setting,value
"CC(=O)NCCCC[C@@H]1NC(=O)[C@H](Cc2c[nH]c3c(C)cccc23)NC(=O)[C@H]([C@@H](C)O)NC(=O)[C@H](CC(N)=O)NC(=O)[C@@H](NC(C)=O)C(C)(C)SSC(C)(C)[C@@H](C(=O)N[C@@H](Cc2ccc(OCCN)cc2)C(=O)N[C@@H](Cc2ccc3ccccc3c2)C(=O)NC2(C(=O)N[C@@H](CCC(=O)O)C(=O)N[C@@H](CC(N)=O)C(=O)N[C@@H](Cc3cccnc3)C(=O)N(C)CC(N)=O)CCOCC2)NC1=O [IL-23 receptor antagonist peptide, Ac-[Pen]*-N-T-[W(7-Me)]-[Lys(Ac)]-[Pen]*-Phe[4-(2-aminoethoxy)]-[2-Nal]-[THP]-E-N-[3-Pal]-Sarc-NH2 (*[Pen]-[Pen]* formdisulfidebond)]","IGA Score = 0 or 1, subjects","100 mg BID, Week 16, trough plasma conc Q1 to <Q2",4 (80.0%)
same,"IGA Score = 0, subjects",[1],2 (40.0%)
same,"IGA Score = 0 or 1, subjects",[1],3 (60.0%)
same,"IGA Score = 0, subjects",[2],3 (60.0%)
same,"IGA Score = 0 or 1, subjects",[2],4 (80.0%)
same,IGA 0 or 1 treatment difference vs placebo,"100 mg QD, Week 16","51.2% (34.0%,"
same,IGA 0 treatment difference vs placebo,"100 mg QD, Week 16","27.9% (14.6%,"
same,Subjects achieving IGA Score = 0,"100 mg QD, Week 16",12 (27.9%)
same,Subjects achieving IGA Score = 0 or 1,"100 mg QD, Week 16",27 (62.8%)
same,"IGA score 0, %","100 mg QD, Week 16, N=43",27.9%
same,"IGA score 0/1, %","100 mg QD, Week 16, N=43",62.8%
same,"IGA Score = 0, % subjects",[3],(50.0%)
same,"IGA Score = 0, n subjects",[3],1
same,"IGA Score = 0 or 1, % subjects",[3],(50.0%)
same,"IGA Score = 0 or 1, n subjects",[3],1
same,"IGA Score = 0, % subjects",[4],(50.0%)
same,"IGA Score = 0, n subjects",[4],1
same,"IGA Score = 0 or 1, % subjects",[4],(100.0%)
same,"IGA Score = 0 or 1, n subjects",[4],2
same,"IGA Score = 0, % subjects",[5],(50.0%)
same,"IGA Score = 0, n subjects",[5],1
same,"IGA Score = 0 or 1, % subjects",[5],(50.0%)
same,"IGA Score = 0 or 1, n subjects",[5],1
same,"IGA Score = 0, n subjects",[6],0
same,"IGA Score = 0 or 1, % subjects",[6],(50.0%)
same,"IGA Score = 0 or 1, n subjects",[6],1
same,"IGA Score = 0, subjects",[7],3 (60.0%)
same,"IGA Score = 0 or 1, subjects",[7],3 (60.0%)
same,"IGA Score = 0, subjects",[8],0
same,"IGA Score = 0 or 1, subjects",[8],3 (60.0%)
same,"IGA Score = 0, subjects",[9],1 (20.0%)
same,"IGA Score = 0 or 1, subjects",[9],3 (60.0%)
same,"IGA Score = 0, subjects",[10],1 (20.0%)
same,"IGA Score = 0 or 1, subjects",[10],3 (60.0%)
same,"IGA Score = 0, % subjects",[11],(10.0%)
same,"IGA Score = 0, n subjects",[11],1
same,"IGA Score = 0 or 1, % subjects",[11],(30.0%)
same,"IGA Score = 0 or 1, n subjects",[11],3
same,"IGA Score = 0, % subjects",[12],(36.4%)
same,"IGA Score = 0, n subjects",[12],4
same,"IGA Score = 0 or 1, % subjects",[12],(72.7%)
same,"IGA Score = 0 or 1, n subjects",[12],8
same,"IGA Score = 0, % subjects",[13],(30.0%)
same,"IGA Score = 0, n subjects",[13],3
same,"IGA Score = 0 or 1, % subjects",[13],(80.0%)
same,"IGA Score = 0 or 1, n subjects",[13],8
same,"IGA Score = 0, % subjects",[14],(45.5%)
same,"IGA Score = 0, n subjects",[14],5
same,"IGA Score = 0 or 1, % subjects",[14],(63.6%)
same,"IGA Score = 0 or 1, n subjects",[14],7
same,"IGA Score = 0, subjects",[15],10 (38.5%)
same,"IGA Score = 0 or 1, subjects",[15],14 (53.8%)
same,"IGA Score = 0, subjects",[16],5 (19.2%)
same,"IGA Score = 0 or 1, subjects",[16],12 (46.2%)
same,"IGA Score = 0, subjects",[17],5 (19.2%)
same,"IGA Score = 0 or 1, subjects",[17],15 (57.7%)
same,"IGA Score = 0, subjects",[18],10 (37.0%)
same,"IGA Score = 0 or 1, subjects",[18],21 (77.8%)
same,"IGA Score = 0, subjects n (%)",[19],0
same,"IGA Score = 0 or 1, subjects n (%)",[19],0
same,"IGA Score = 0, subjects n (%)",[20],0
same,"IGA Score = 0 or 1, subjects n (%)",[20],1 (100.0%)
same,"IGA Score = 0, subjects n (%)",[21],0
same,"IGA Score = 0 or 1, subjects n (%)",[21],0
same,"IGA Score = 0, subjects n (%)",[22],0
same,"IGA Score = 0 or 1, subjects n (%)",[22],1 (100.0%)
same,"IGA Score = 0, subjects n (%)",[23],0
same,"IGA Score = 0 or 1, subjects n (%)",[23],0
same,"IGA Score = 0, subjects n (%)",[24],1 (100.0%)
same,"IGA Score = 0 or 1, subjects n (%)",[24],1 (100.0%)
same,"IGA Score = 0, subjects n (%)",[25],0
same,"IGA Score = 0 or 1, subjects n (%)",[25],0
same,"IGA Score = 0, subjects n (%)",[26],0
same,"IGA Score = 0 or 1, subjects n (%)",[26],0
same,"IGA Score = 0, subjects n (%)",[27],1 (100.0%)
same,"IGA Score = 0 or 1, subjects n (%)",[27],1 (100.0%)
same,"IGA Score = 0, subjects n (%)",[28],1 (100.0%)
same,"IGA Score = 0 or 1, subjects n (%)",[28],1 (100.0%)
same,"IGA Score = 0, subjects n (%)",[29],0
same,"IGA Score = 0 or 1, subjects n (%)",[29],1 (50.0%)
same,"IGA Score = 0, subjects n (%)",[30],1 (100.0%)
same,"IGA Score = 0 or 1, subjects n (%)",[30],1 (100.0%)
same,"IGA Score = 0, subjects n (%)",[31],1 (100.0%)
same,"IGA Score = 0 or 1, subjects n (%)",[31],1 (100.0%)
same,"IGA Score = 0, subjects n (%)",[32],0
same,"IGA Score = 0 or 1, subjects n (%)",[32],0
same,"IGA Score = 0, subjects n (%)",[33],2 (100.0%)
same,"IGA Score = 0 or 1, subjects n (%)",[33],2 (100.0%)
same,"IGA Score = 0, subjects n (%)",[34],1 (100.0%)
same,"IGA Score = 0 or 1, subjects n (%)",[34],1 (100.0%)
same,"IGA Score = 0, subjects n (%)",[35],1 (100.0%)
same,"IGA Score = 0 or 1, subjects n (%)",[35],1 (100.0%)
same,"IGA Score = 0, subjects n (%)",[36],0
same,"IGA Score = 0 or 1, subjects n (%)",[36],1 (100.0%)
same,"IGA Score = 0, subjects n (%)",[37],0
same,"IGA Score = 0 or 1, subjects n (%)",[37],1 (100.0%)
same,"IGA Score = 0, subjects n (%)",[38],3 (60.0%)
same,"IGA Score = 0 or 1, subjects n (%)",[38],3 (60.0%)
same,"IGA Score = 0, subjects n (%)",[39],2 (40.0%)
same,"IGA Score = 0 or 1, subjects n (%)",[39],3 (60.0%)
same,"IGA Score = 0, subjects n (%)",[40],1 (20.0%)
same,"IGA Score = 0 or 1, subjects n (%)",[40],3 (60.0%)
same,"IGA Score = 0, subjects n (%)",[41],3 (50.0%)
same,"IGA Score = 0 or 1, subjects n (%)",[41],5 (83.3%)

# Reference: US20260232767A1, “INTERLEUKIN-23 RECEPTOR ANTAGONIST PEPTIDES FOR USE IN THE TREATMENT OF PSORIASIS” (Janssen Pharmaceutica NV, priority 2023, published 2026)
